From PubChem BioAssay (NCI)
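Exposure lasted 48 hours, with cells grown in 96-well plates and compounds tested at five concentrations. The concentration for 50% growth inhibition is given as GI50. At the TGI there is no net growth.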

Legend:
Assay in all cases: NCI-60 cell line screen, 48 h
OVCAR-3 ovarian = tested on: OVCAR-3 ovarian
MDA-MB-435 = tested on: MDA-MB-435
SK-MEL-28 melanoma = tested on: SK-MEL-28 melanoma
NCI-H460 lung = tested on: NCI-H460 lung
UACC-257 melanoma = tested on: UACC-257 melanoma
BT-549 breast = tested on: BT-549 breast
UACC-62 melanoma = tested on: UACC-62 melanoma
ACHN renal = tested on: ACHN renal
HS 578T breast = tested on: HS 578T breast
CCRF-CEM leukemia = tested on: CCRF-CEM leukemia

Row | Compound | TGI (OVCAR-3 ovarian) [µM] | TGI (MDA-MB-435) [µM] | TGI (SK-MEL-28 melanoma) [µM] | TGI (NCI-H460 lung) [µM] | TGI (UACC-257 melanoma) [µM] | TGI (BT-549 breast) [µM] | TGI (UACC-62 melanoma) [µM] | TGI (ACHN renal) [µM] | GI50 (OVCAR-3 ovarian) [µM] | GI50 (MDA-MB-435) [µM] | GI50 (SK-MEL-28 melanoma) [µM] | GI50 (NCI-H460 lung) [µM] | GI50 (UACC-257 melanoma) [µM] | GI50 (HS 578T breast) [µM] | TGI (HS 578T breast) [µM] | GI50 (UACC-62 melanoma) [µM] | GI50 (CCRF-CEM leukemia) [µM] | TGI (CCRF-CEM leukemia) [µM] | GI50 (ACHN renal) [µM] | GI50 (BT-549 breast) [µM]
1 | O=C(O)c1ccc([N+](=O)[O-])c(P(=O)(O)O)c1 | > 100 | > 100 | > 100 | > 100 | > 100 | > 100 | > 100 | > 100 | – | – | – | – | – | – | – | – | – | – | – | –
2 | O=C(/C=C/c1ccccc1O)c1ccccc1 | 12.3 | 21.1 | 22 | 29 | 25.3 | – | 25.9 | 24.2 | 3.14 | 6.02 | 9.5 | 14.2 | 12.1 | 5.67 | 30.4 | 13.1 | 2.64 | 8.19 | 11 | –
3 | Cn1nc(-c2ccccc2)c(C(=O)/C=C/c2ccccc2)c(N2CCCCC2)c1=O | – | – | 62.8 | > 100 | – | – | > 100 | > 100 | – | – | – | – | – | – | – | – | – | > 100 | – | –
4 | CCCCCCCCC(=O)CCCCCCCCC(=O)O | 40.1 | – | > 100 | 44.6 | > 100 | – | 54.6 | 59.8 | – | – | – | – | – | – | – | – | – | > 100 | – | –
5 | CC12Oc3ccc4ccccc4c3C1c1c(ccc3ccccc13)O2 (configuration not stated) | > 100 | – | > 100 | > 100 | – | – | > 100 | > 100 | – | – | – | – | – | – | – | – | – | > 100 | – | –
6 | CCCCC(SC(=S)N(CC)CC)C(=O)Nc1nc(CC(=O)OCC)cs1 (configuration not stated) | > 100 | > 100 | > 100 | – | > 100 | > 100 | > 100 | > 100 | 13.7 | 31.4 | 47.3 | – | 35.6 | 47.9 | > 100 | 29.8 | – | – | 67.3 | 39
7 | CCOC(=O)CC(=O)N(c1ccc(OC)cc1)C(C(=O)OC)c1ccccc1 (configuration not stated) | > 100 | > 100 | > 100 | > 100 | > 100 | – | > 100 | > 100 | – | – | – | – | – | – | > 100 | – | – | > 100 | – | –
8 | COC(=O)C1C2CC3C(OC(=O)C31)C2I (configuration not stated) | > 100 | – | > 10 | > 100 | > 100 | – | > 100 | > 100 | – | – | – | – | – | – | – | – | – | – | – | –
9 | CC(=O)c1cc2c3c(c1)c1cc4c(cc1c(=O)n3CC2)OCO4 | > 100 | – | > 100 | 49.7 | > 100 | – | 53.9 | > 100 | – | – | – | – | – | – | – | – | – | > 100 | – | –
10 | Nc1ccn(C2OC(CO[P+](=O)OC3C(CO[P+](=O)OC4C(CO[P+](=O)OC5C(CO[P+](=O)OC6C(CO[P+](=O)OC7C(CO[P+](=O)OC8C(CO[P+](=O)OC9C(CO[P+](=O)OC%10C(CO[P+](=O)OC%11C(CO)OC(n%12ccc(N)nc%12=O)C%11(F)F)OC(n%11ccc(N)nc%11=O)C%10(F)F)OC(n%10ccc(N)nc%10=O)C9(F)F)OC(n9ccc(N)nc9=O)C8(F)F)OC(n8ccc(N)nc8=O)C7(F)F)OC(n7ccc(N)nc7=O)C6(F)F)OC(n6ccc(N)nc6=O)C5(F)F)OC(n5ccc(N)nc5=O)C4(F)F)OC(n4ccc(N)nc4=O)C3(F)F)C(O)C2(F)F)c(=O)n1 (configuration not stated) | > 100 | > 100 | > 100 | – | – | – | – | – | – | – | > 100 | – | 0.859 | > 100 | – | – | – | – | – | 0.426
11 | O=[n+]1cnn([O-])c2ccccc21 | – | > 100 | > 100 | – | 37.1 | 54.4 | 39.4 | 36.9 | – | – | – | – | – | – | > 100 | – | – | > 100 | – | –
12 | CC1C(=O)CCC1C(Sc1ccccc1)(Sc1ccccc1)Sc1ccccc1 (configuration not stated) | > 100 | – | > 100 | > 100 | > 100 | – | > 100 | > 100 | – | – | – | – | – | – | – | – | – | 22.4 | – | –
13 | CCCCN(CCCC)c1cc(C(=O)CCCCCN)c2ccccc2n1 | 3.79 | – | 3.37 | – | 3.5 | 23.4 | 3.07 | 3.14 | 2.02 | – | 1.91 | – | 1.76 | 2.13 | 6.05 | 1.66 | 3.2 | 7.32 | 1.76 | 8.57
14 | COc1cc(-c2nn(C)nc2-c2cc3ccccc3s2)cc(OC)c1OC | 0.77 | 0.0995 | > 100 | > 100 | > 100 | – | > 100 | > 100 | 0.0354 | 0.0257 | 13 | 0.0699 | 51.5 | 0.27 | > 100 | 0.0538 | 0.22 | > 100 | 0.293 | –
15 | CCC[CH2][Sn]([CH2]CCC)([O]C(=O)c1cc(OC)c(OC)c(OC)c1)[O]C(=O)c1cc(OC)c(OC)c(OC)c1 | 2.59 | – | 1.99 | 9.21 | 2.47 | – | 2.12 | 2.98 | 1.26 | – | 0.633 | 2.96 | 1.09 | – | – | 0.892 | 0.25 | 0.862 | 1.59 | –
16 | Nc1ccccc1S(=O)c1ccccc1 (configuration not stated) | > 100 | – | > 100 | > 100 | > 1 | – | > 100 | > 100 | – | – | – | – | – | – | – | – | – | > 100 | – | –
17 | CCOC(=O)NC(=O)c1cn(CCCCCCCCCCC(=O)N2CCN(CCn3cc(C(=O)NC(=O)OCC)c(=O)[nH]c3=O)CC2)c(=O)[nH]c1=O | > 100 | – | > 100 | > 100 | > 100 | – | > 100 | > 100 | – | – | – | – | – | – | – | – | – | > 100 | – | –
18 | Cc1cc(N2CCOCC2)nc(N(CCNc2ccnc3cc(Cl)ccc23)Cc2ccco2)n1 | – | 15.2 | 7.67 | 23.9 | 16.5 | 8.69 | 10 | 15.3 | – | 3.27 | 2.69 | 3.72 | 3.41 | 2.64 | 10.1 | 3.25 | 3.18 | > 100 | 3.46 | 2.8
19 | CCOC(=O)/C(=C/c1cc(OC)ccc1OC)CC(=O)O | > 100 | – | > 100 | > 100 | > 100 | – | > 100 | > 100 | – | – | – | – | – | – | – | – | – | > 31.6 | – | –
20 | Cn1c(O)c(C=N)c(=O)n(C)c1=O | > 100 | – | > 100 | > 100 | > 100 | – | – | > 100 | – | – | – | – | – | – | – | – | – | > 100 | – | –
